From patent publication US8686051B2, “Pharmaceutical composition for treatment of diabetic complications” (VLife Sciences Technologies Pvt. Ltd., priority 2007, dated 2014)
Where a name gives a salt, the structure may show the parent alone. Each block holds one molecule with its values, some of them ahead of it.

What was measured:
[1] = target: T1, purified human recombinant aldose reductase (Homo sapiens, UniProt P15121); test: Aldose reductase (AR) inhibition, spectrophotometric NADPH oxidation assay; type: biochemical; conditions: for IC50: read-out: Aldose reductase inhibitory IC50
T1 construct: made in house; host or cells: E. coli
From the text: For enzyme inhibition studies, purified human recombinant aldose reductase (expressed in E. coli) was used for testing the aldose reductase (AR) inhibitory activity of beta adrenergic antagonists by a spectrophotometric method, using glyceraldehydes as substrate, (Mol. Vis. 2004, 10, 148-154). Recombinant human aldose reductase was purified from bacterial cultures. Enzyme from expression cultures was extracted and purified essentially as described previously (J Biol Chem 1992; 267: 24833-40) with the exception that affinity chromatography over AffiGel Blue (Bio-Rad) was used as a final purification step. AR activity was assayed according to the method described by Hayman and Kinoshita (J Biol Chem 1965; 240: 877-82). The assay mixture in 1 ml contained 50 μM potassium phosphate buffer pH 6.2, 0.4 mM lithium sulfate, 5 μM 2-mercaptoethanol, 10 μM DL-glyceraldehyde, 0.1 μM NADPH, and enzyme preparation (rat lens or recombinant enzyme). Appropriate blanks were employed for corrections. The assay mixture was incubated at 37° C. and initiated by the addition of NADPH at 37° C. The change in the absorbance at 340 nm due to NADPH oxidation was followed in a Cary Bio 100 spectrophotometer. For inhibition studies concentrated stocks of the Beta adrenergic antagonists, timolol, esmolol, sotalol, nebivolol, carvedilol, metoprolol and labetalol were prepared in water. Various concentrations of Beta adrenergic antagonists, as test compounds, were added to the assay mixture and incubated for 5-10 minutes before initiating the reaction by NADPH as described above. The percent of inhibition with test compounds was calculated considering the AR activity in the absence of inhibitor was 100%. The concentration of each test sample giving 50% inhibition (IC50) was then estimated.

[2] = tested on: formation of sorbitol in red blood cells (RBC); test: Estimation of sorbitol in red blood cells incubated with 30 mM glucose; type: cell-based
Description: The cells were incubated with 30 mM glucose in vitro. Sorbitol was estimated by the method of reported by Malone, et al. Diabetes; 1980; 29: 861-864.

[3] = tested on: wound on dorsal skin of diabetic Wistar rats; test: Diabetic wound healing in streptozocin-diabetic rats, topical treatment; type: in vivo; conditions: for Wound diameter: diabetic rats, topical
Description: Wistar rats were kept in standard autoclaved rodent cages with ad libitum food (Harland Tekland Irradiated Rodent Diet) and autoclaved water. The rats were housed on Harlan Tek-chip pelleted paper in static micro isolators maintained at 72° F., 60% humidity, and a 12 hour light cycle. The animals were kept at the facility for 10 days to get accustomed to the environment, after the arrival from the vendor. Diabetes was induced in the rats by intraperitoneal injection of 50 mg/kg body weight of streptozocin on 5 consecutive days. The wound was created on the rat by using a contortive scratcher to make a 2 mm incision with 0.57-0.62 mm depth on the dorsal skin of the animal. The area was shaved and sanitized with normal lugol's iodine prior to use of the scratcher.
Esmolol hydrochloride (10%) was administered three times daily or the standard treatment control, by smearing the agent directly onto the wound. The positive control used was platelet derived growth factor that is commercially available. The treatment was continued until the wounds of the treated mice were completely healed. […]
Several wound healing parameters were measured on the day 3, day 7, day 12 and day 19 of the creation of the wound. These parameters are reported in separate tables below. The wound size and weight of the rats was measured every alternate day. Specifically, the length and width of the wound were measured by use of micro vernier calipers, and the tensile strength at the edge of the wound was also recorded every other day. The wound diameter was measured by the same investigator on day 3, 12, 19 by the use of an electronic digital vernier caliper (B&D, Pomanus, N.J.). The caliper was calibrated just before the measurement by adjusting the zero error. […]
The area for evaluation was cut clean by an Eppendorf 10 size scalpel and the tissue was preserved in 10% of phosphate buffered formalin solution. The tissues were removed from this formalin solution and immersed in 100% of ethanol for 6 hours. The tissue were again removed and preserved for evaluation in 10% Bouins solution. […]
The quantity of exudation from wound was measured by the use of a micropipette (Eppendorf). […]
The adherence is the strength by which the two ends of the wound are attached together and measured by a Velcro index meter.
Fluid accumulation was measured by volume of fluid obtained from wound using micro pipette as described in Table 8. […]

[4] = tested on: nitric oxide (nitrate/nitrite); test: Measurement of nitric oxide (nitrite/nitrate) in tissue by chemiluminescence; type: in vivo, rat; conditions: total versus controls
Description: Fresh tissue (approximately 0.2 g) was added to 1 ml cold homogenizing buffer (20 mmol/l HEPES-KOH, pH 7.9; 25% glycerol; 420 mmol/l NaCl; 1.5 mmol/l MgCl2; 0.2 mmol/l EDTA; 0.5 mmol/l dithiothreitol; 0.2 mmol/l phenylmethylsulphonyl fluoride). The buffered tissues were homogenized at maximum speed for 5 seconds and cooled in ice-water for 30 seconds. This procedure was repeated five times to ensure complete tissue destruction.
Two volumes of 100% cold ethanol were added to the homogenized samples; these were vortexed and incubated on ice for 30 minutes. The homogenate was centrifuged at 12,000×g for 5 minutes at 4° C., and the supernatant transferred to a new tube on ice for NO measurement.
A rapid-response chemiluminescence analyzer was used to measure total gas phase NO (nitrate/nitrite). NO gas reacts with ozone, producing energy in the form of light, and the light is proportional to the quantity of NO present. The emission was measured using a luminometer to determine NO concentration.
The sample tube was securely connected to a Zero Gas Filter (Sievers Instruments) and room air passed through the device for 5 minutes. […] The sample gas was then exposed to the ozone in the reaction vessel to form activated nitrogen dioxide (NO2), which was detected using a red-sensitive photomultiplier tube, and the output recorded using an integrating pen recorder. […]

[5] = tested on: collagen (hydroxyproline); test: Measurement of collagen (tissue hydroxyproline by HPLC); type: in vivo, rat; design: Collagen production: unit not given here
From the text: The synthesis of the 19 known collagens occurs within the cell, as it does for other proteins. The collagen molecule is characterized by the repeating sequence Gly-X-Y, with X often being proline and Y often being hydroxyproline. Hydroxyproline is the end product of collagen breakdown. For this reason, tissue hydroxyproline level is an indirect and objective variable of tissue collagen production. In many experimental studies, hydroxyproline has been used to assess tissue collagen production.
Collagen levels in the tissue were measured by use of high performance liquid chromatography (HPLC) for separating and quantitating the levels of hydroxyproline from the rat tissue. A reverse-phase Nova-Pak C18 column and solvent system (140 mM sodium acetate, 0.05% triethylamine (TEA), 6% acetonitrile) were used, resulting in complete separation of hydroxyproline. Recovery of standards ranged from 89 to 103% and intra-assay variability was <8%. Additionally, [^3H]hydroxyproline measurements were used to examine changes in collagen turnover in the rat labeled with [^3H]proline and “chased” in the presence of 10 mM unlabeled proline.

IC50 [1]: > 350 µM
Compound: OC(CNCC(O)C1CCc2cc(F)ccc2O1)C1CCc2cc(F)ccc2O1 (centres unmarked) [Nebivolol, nebivolol hydrochloride]

IC50 [1]: > 350 µM
Compound: CC(C)NCC(O)c1ccc(NS(C)(=O)=O)cc1 (centres unmarked) [Sotalol, sotalol hydrochloride]

IC50 [1]: > 350 µM
Compound: COCCc1ccc(OCC(O)CNC(C)C)cc1 (centres unmarked) [Metoprolol, metoprolol tartrate]

IC50 [1]: > 350 µM
Compound: COc1ccccc1OCCNCC(O)COc1cccc2[nH]c3ccccc3c12 (centres unmarked) [Carvedilol, carvedilol]

aldose reductase inhibition (in words) [1]: effective aldose reductase inhibition
IC50 [1]: 250 µM
Compound: CC(C)(C)NC[C@H](O)COc1nsnc1N1CCOCC1 [Timolol, timolol maleate]
Sorbitol concentration in RBC ([2]; RBC under 30 mM glucose + 250 μM of timolol): 17.34 µg/mL

Compound: CC(C)NCC(O)COc1cccc2ccccc12.Cl (centres unmarked) [Propranolol, propranolol hydrochloride]
aldose reductase inhibition (in words) [1]: effective aldose reductase inhibition
IC50 [1]: 350 µM
Sorbitol concentration in RBC ([2]; RBC under 30 mM glucose + 350 μM of propranolol): 18.25 µg/mL

aldose reductase inhibition (in words) [1]: effective aldose reductase inhibition
IC50 [1]: 160 µM
Compound: COC(=O)CCc1ccc(OCC(O)CNC(C)C)cc1 (centres unmarked) [Esmolol, esmolol hydrochloride]
Sorbitol concentration in RBC ([2]; RBC under 30 mM glucose + 150 μM of esmolol): 16.16 µg/mL
Ease of removal from wounds ([3]; Day 3): 2.6 +/− 0.2
Evaluation of biopsy wounds in diabetic rats ([3]; Day 3): 1.3 +/− 0.3
Exudation ([3]; Day 3): 1.2 ± 0.2 µL
Film transparency ([3]; Day 3): 1.7 +/− 0.3
Flexibility ([3]; Day 3): 2.3 +/− 0.2
Fluid accumulation ([3]; Day 3): 2.3 +/− 0.4
Wound adherence ([3]; Day 3): 2.6 +/− 0.4
Wound diameter: degree of contraction ([3]; Day 3): 12.17 +/− 5.8%
Wound diameter ([3]; Day 3): 1.28 +/− 0.12 MM
Ease of removal from wounds ([3]; Day 7): 2.8 +/− 0.3
Evaluation of biopsy wounds in diabetic rats ([3]; Day 7): 1.3 +/− 0.2
Exudation ([3]; Day 7): 2.7 ± 0.5 µL
Film transparency ([3]; Day 7): 2.3 +/− 0.4
Flexibility ([3]; Day 7): 2.4 +/− 0.5
Fluid accumulation ([3]; Day 7): 2.7 +/− 0.5
Wound adherence ([3]; Day 7): 3.3 +/− 0.3
Ease of removal from wounds ([3]; Day 12): 2.7 +/− 0.5
Evaluation of biopsy wounds in diabetic rats ([3]; Day 12): 1.4 +/− 0.3
Exudation ([3]; Day 12): 3.5 ± 0.6 µL
Film transparency ([3]; Day 12): 2.6 +/− 0.6
Flexibility ([3]; Day 12): 3.5 +/− 0.6
Fluid accumulation ([3]; Day 12): 2.6 +/− 0.7
Wound adherence ([3]; Day 12): 3.9 +/− 0.5
Wound diameter: degree of contraction ([3]; Day 12): 41.86 +/− 13.2%
Wound diameter ([3]; Day 12): 1.37 +/− 0.17 MM
Ease of removal from wounds ([3]; Day 19): 2.5 +/− 0.4
Evaluation of biopsy wounds in diabetic rats ([3]; Day 19): 1.5 +/− 0.3
Exudation ([3]; Day 19): 4.9 ± 0.2 µL
Film transparency ([3]; Day 19): 3.3 +/− 0.4
Flexibility ([3]; Day 19): 3.9 +/− 0.8
Fluid accumulation ([3]; Day 19): 2.5 +/− 0.5
Wound adherence ([3]; Day 19): 4.7 +/− 0.5
Wound diameter: degree of contraction ([3]; Day 19): 98.64 +/− 9.6%
Wound diameter ([3]; Day 19): 0.79 +/− 0.28 MM
Ease of removal from wounds ([3]; Total): 10.6 +/− 1.4
Evaluation of biopsy wounds in diabetic rats ([3]; Total): 5.5 +/− 1.1
Exudation ([3]; Total): 12.3 ± 1.1 µL
Film transparency ([3]; Total): 9.9 +/− 1.1
Flexibility ([3]; Total): 12.1 +/− 2.9
Fluid accumulation ([3]; Total): 10.1 +/− 1.2
Wound adherence ([3]; Total): 14.5 +/− 0.9
Period for epithelization ([3]; rat, in vivo): 9.8 ± 0.8 days
Scar formation ([3]; rat, in vivo): 1.3 +/− 0.4 Score
Time taken for complete wound closure ([3]; rat, in vivo): 19.6 ± 2.2 days
NO increase, % Increase [4]: 53%
Collagen production ([5]; Day 3): 124
Collagen production ([5]; Day 7): 287
Collagen production ([5]; Day 12): 325
Collagen production ([5]; Day 19): 288
Collagen production ([5]; Total): 1024
Collagen production, % Increase ([5]; total versus controls): 68%

IC50 [1]: > 350 µM
Compound: CC(CCc1ccccc1)NCC(O)c1ccc(O)c(C(N)=O)c1 (centres unmarked) [Labetalol, labetalol hydrochloride]
